# Biological target: T1, Recombinant human KIF18A (1-467 His-tagged) protein (Homo sapiens, UniProt Q8NI77)
# T1 construct: Recombinant human KIF18A (1-467 His-tagged) protein; His; made in house
# Assay: KIF18A Enzyme Assay: microtubule-stimulated ATPase activity (ADP-Glo)
# Type: biochemical
# Settings: 30 nM KIF18A, 75 μM ATP
# From the text: KIF18A Enzyme Assay: Microtubule-stimulated ATPase activity assay is used to measure KIF18A enzyme activity after treatment with compound. Compounds were 2-fold serially diluted in DMSO (Sigma Inc) over 22-point concentration range. Recombinant human KIF18A (1-467 His-tagged) protein was expressed using a baculovirus system and purified by affinity chromatography by Amgen Inc. Concentrations of KIF18A protein, microtubules (MT), and ATP in the reaction were optimized for standardized homogenous enzyme assay using ADP-Glorm Kinase/ATPase Assay Kit (Promega Inc). The assay measures ADP formed from the ATPase reaction. […] Read luminescence using EnVision microplate reader with ultra-luminescence module (Perkin Elmer Inc). Concentration-response curve-fitting and IC50 determination was performed using Genedata Screener Software (Standard 15.0.1, Genedata Inc) with a four-parameter logistic regression fit model.
# Table A provides data for compounds exemplified in the present application and priority document thereof, as representative compounds of the present invention, as follows: chemical name (as named by either ACD software or ChemDraw (Professional 15.0)) and biological data (IC50 in μM). Ex. # refers to Example No.
# T1 sequence (Q8NI77 1-467): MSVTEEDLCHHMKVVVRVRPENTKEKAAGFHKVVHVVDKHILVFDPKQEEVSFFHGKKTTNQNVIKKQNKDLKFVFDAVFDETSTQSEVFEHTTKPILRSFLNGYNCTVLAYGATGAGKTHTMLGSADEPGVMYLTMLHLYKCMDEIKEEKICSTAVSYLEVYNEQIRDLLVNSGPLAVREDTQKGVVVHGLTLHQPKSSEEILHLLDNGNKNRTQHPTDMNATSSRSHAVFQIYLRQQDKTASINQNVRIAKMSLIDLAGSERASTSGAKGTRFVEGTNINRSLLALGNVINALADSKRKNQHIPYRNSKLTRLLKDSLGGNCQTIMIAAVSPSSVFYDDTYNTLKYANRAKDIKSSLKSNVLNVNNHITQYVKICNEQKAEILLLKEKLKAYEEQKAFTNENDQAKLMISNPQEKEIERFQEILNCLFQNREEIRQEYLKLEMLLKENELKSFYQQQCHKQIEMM
# T1 sequence (P02550 whole entry partner): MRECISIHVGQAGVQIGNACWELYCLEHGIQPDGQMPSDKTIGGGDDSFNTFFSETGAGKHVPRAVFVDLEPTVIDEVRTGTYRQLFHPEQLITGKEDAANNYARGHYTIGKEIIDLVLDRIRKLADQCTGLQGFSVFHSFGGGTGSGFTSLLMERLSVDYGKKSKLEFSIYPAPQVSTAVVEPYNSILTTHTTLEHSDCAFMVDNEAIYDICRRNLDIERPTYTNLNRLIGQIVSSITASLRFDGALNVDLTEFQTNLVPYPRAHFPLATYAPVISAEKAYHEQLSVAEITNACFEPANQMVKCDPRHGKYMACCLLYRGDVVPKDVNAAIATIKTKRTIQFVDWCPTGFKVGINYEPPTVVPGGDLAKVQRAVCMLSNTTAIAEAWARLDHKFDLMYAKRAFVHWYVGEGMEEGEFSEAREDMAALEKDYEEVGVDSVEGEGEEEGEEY
# T1 sequence (P02554 whole entry partner): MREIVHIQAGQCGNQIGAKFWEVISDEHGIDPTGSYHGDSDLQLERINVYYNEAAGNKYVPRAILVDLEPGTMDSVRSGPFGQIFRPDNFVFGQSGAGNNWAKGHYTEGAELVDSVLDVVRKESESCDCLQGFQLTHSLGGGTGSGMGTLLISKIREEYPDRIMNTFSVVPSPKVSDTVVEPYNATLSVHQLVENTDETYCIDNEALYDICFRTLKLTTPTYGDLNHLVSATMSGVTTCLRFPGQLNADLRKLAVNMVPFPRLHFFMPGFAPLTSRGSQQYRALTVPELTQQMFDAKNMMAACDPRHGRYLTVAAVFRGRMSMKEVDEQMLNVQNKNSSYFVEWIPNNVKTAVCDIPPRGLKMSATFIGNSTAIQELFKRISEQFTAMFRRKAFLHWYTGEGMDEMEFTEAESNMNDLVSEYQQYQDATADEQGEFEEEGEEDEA
row,SMILES,IC50 [nM]
1,"CCNc1ccc(C(=O)Nc2cccc(S(=O)(=O)C3CCCC3)c2)c(N2CCC3(CCC3)CC2)n1 [Example 103-23, N-(3-(cyclopentylsulfonyl)phenyl)-6-(ethylamino)-2-(7-azaspiro[3.5]nonan-7-yl)nicotinamide]",97
2,"Cc1noc(-c2cccc(NC(=O)c3ccc(NC(C)(C)CO)nc3N3CCC4(CC3)CC4)c2)n1 [Example 111-7, 6-((1-hydroxy-2-methylpropan-2-yl)amino)-N-(3-(3-methyl-1,2,4-oxadiazol-5-yl)phenyl)-2-(6-azaspiro[2.5]octan-6-yl)nicotinamide]",417
3,"O=C(Nc1cccc(S(=O)(=O)C2CCCC2)c1)c1ccncc1N1CCC2(CC1)CC2 [Example 114-1, N-(3-(cyclopentylsulfonyl)phenyl)-3-(6-azaspiro[2.5]octan-6-yl)isonicotinamide]",253
4,"CC(C)(C)NS(=O)(=O)c1cccc(NC(=O)c2ccc(N[C@H]3C[C@@H](O)C3)nc2N2CCC3(CC2)CC3)c1 [Example 102-29, N-(3-(N-(tert-butyl)sulfamoyl)phenyl)-6-(((1S,3S)-3-hydroxycyclobutyl)amino)-2-(6-azaspiro[2.5]octan-6-yl)nicotinamide]",98
5,"Cc1ccc(NC(=O)c2ccc(NC(C)(C)CO)nc2N2CCC3(CC2)CC3)cc1S(=O)(=O)NC(C)(C)C [Example 105-16, N-(3-(N-(tert-butyl)sulfamoyl)-4-methylphenyl)-6-((1-hydroxy-2-methylpropan-2-yl)amino)-2-(6-azaspiro[2.5]octan-6-yl)nicotinamide]",121
6,"O=C(Nc1cccc(S(=O)(=O)N2CC(F)(F)C2)c1)c1cccnc1N1CCC2(CC1)CC2 [Example 101-5, N-(3-((3,3-difluoroazetidin-1-yl)sulfonyl)phenyl)-2-(6-azaspiro[2.5]octan-6-yl)nicotinamide]",401
7,"CC(C)(C)NS(=O)(=O)c1cccc(NC(=O)c2ccc(N[C@@H]3CCC[C@H]3O)nc2N2CCC3(CC2)CC3)c1 [Example 102-18, N-(3-(N-(tert-butyl)sulfamoyl)phenyl)-6-(((1R,2R)-2-hydroxycyclopentyl)amino)-2-(6-azaspiro[2.5]octan-6-yl)nicotinamide]",107
8,"CC(C)(C)NS(=O)(=O)c1cccc(NC(=O)c2ccc(NCCCO)nc2N2CCC3(CC2)CC3)c1 [Example 102-30, N-(3-(N-(tert-butyl)sulfamoyl)phenyl)-6-((3-hydroxypropyl)amino)-2-(6-azaspiro[2.5]octan-6-yl)nicotinamide]",81
9,"Cc1ccc(NC(=O)c2ccc(NC(C)(C)CO)nc2N2CCC3(CC2)CC3)cc1-c1ccccn1 [Example 111-10, 6-((1-hydroxy-2-methylpropan-2-yl)amino)-N-(4-methyl-3-(pyridin-2-yl)phenyl)-2-(6-azaspiro[2.5]octan-6-yl)nicotinamide]",303
10,"O=C(Nc1cccc(S(=O)(=O)C2CCCC2)c1)c1ccc(N2CCC2)nc1N1CCC2(CCC2)CC1 [Example 103-26, 6-(azctidin-1-yl)-N-(3-(cyclopentylsulfonyl)phenyl)-2-(7-azaspiro[3.5]nonan-7-yl)nicotinamide]",141
11,"CC(C)(C)NS(=O)(=O)c1cc(NC(=O)c2ccc(NC(C)(C)CO)nc2N2CCC3(CC2)CC3)cc(-c2cccnc2)c1 [Example 112-3, N-(3-(N-(tert-butyl)sulfamoyl)-5-(pyridin-3-yl)phenyl)-6-((1-hydroxy-2-methylpropan-2-yl)amino)-2-(6-azaspiro[2.5]octan-6-yl)nicotinamide]",561
12,"CC(C)(C)NS(=O)(=O)c1cccc(NC(=O)c2ccc(NCc3ccccc3)nc2N2CCC3(CC2)CC3)c1 [Example 102-31, 6-(benzylamino)-N-(3-(N-(tert-butyl)sulfamoyl)phenyl)-2-(6-azaspiro[2.5]octan-6-yl)nicotinamide]",317
13,"CCC1CCN(c2ncccc2C(=O)Nc2cccc(S(=O)(=O)C3CCCC3)c2)CC1 [Example 100-15, N-(3-(cyclopentylsulfonyl)phenyl)-2-(4-ethylpiperidin-1-yl)nicotinamide]",850
14,"O=C(Nc1cccc(S(=O)(=O)C2CCCC2)c1)c1ccc(N2CC(O)C2)nc1N1CCC2(CC1)CC2 [Example 103-21, N-(3-(cyclopentylsulfonyl)phenyl)-6-(3-hydroxyazetidin-1-yl)-2-(6-azaspiro[2.5]octan-6-yl)nicotinamide]",118
15,"CC(C)(C)NS(=O)(=O)c1cccc(NC(=O)c2ccc(N3CC(O)(C(F)(F)F)C3)nc2N2CCC3(CC2)CC3)c1 [Example 102-14, N-(3-(N-(tert-butyl)sulfamoyl)phenyl)-6-(3-hydroxy-3-(trifluoromethyl)azetidin-1-yl)-2-(6-azaspiro[2.5]octan-6-yl)nicotinamide]",280
16,"Cc1ccc(NC(=O)c2cccnc2N2CCC3(CC2)CC3)cc1S(=O)(=O)NC1CC1 [Example 100-13, N-(3-(N-cyclopropylsulfamoyl)-4-methylphenyl)-2-(6-azaspiro[2.5]octan-6-yl)nicotinamide]",712
17,"Cc1ccc(NC(=O)c2ccc(NC(C)(C)CO)nc2N2CCC3(CC2)CC3)cc1N1CCOCC1 [Example 105-30, 6-((1-hydroxy-2-methylpropan-2-yl)amino)-N-(4-methyl-3-morpholinophenyl)-2-(6-azaspiro[2.5]octan-6-yl)nicotinamide]",261
18,"Cc1cncc(-c2cc(NC(=O)c3ccc(NC(C)(C)CO)nc3N3CCC4(CC3)CC4)ccc2C)c1 [Example 111-13, 6-((1-hydroxy-2-methylpropan-2-yl)amino)-N-(4-methyl-3-(5-methylpyridin-3-yl)phenyl)-2-(6-azaspiro[2.5]octan-6-yl)nicotinamide]",165
19,"O=C(Nc1cccc(S(=O)(=O)C2CCCC2)c1)c1ccc(N[C@@H]2CC[C@H]2O)nc1N1CCC2(CC1)CC2 [Example 103-14, N-(3-(cyclopentylsulfonyl)phenyl)-6-(((1R,2R)-2-hydroxycyclobutyl)amino)-2-(6-azaspiro[2.5]octan-6-yl)nicotinamide]",161
20,"CC(O)(c1ccc(C(=O)Nc2cccc(S(=O)(=O)C3CCCC3)c2)c(N2CCC3(CC2)CC3)n1)C(F)(F)F (stereo not drawn) [Example 108-2, N-(3-(cyclopentylsulfonyl)phenyl)-2-(6-azaspiro[2.5]octan-6-yl)-6-(1,1,1-trifluoro-2-hydroxypropan-2-yl)nicotinamide]",65
21,"O=C(Nc1cccc(S(=O)(=O)C2CCCCC2)c1)c1cccnc1N1CCC2(CC1)CC2 [Example 100-23, N-(3-(cyclohexylsulfonyl)phenyl)-2-(6-azaspiro[2.5]octan-6-yl)nicotinamide]",610
22,"O=C(Nc1cccc(S(=O)(=O)N2CCCCC2)c1)c1cccnc1N1CCC2(CCC2)CC1 [Example 100-4, N-(3-(piperidin-1-ylsulfonyl)phenyl)-2-(7-azaspiro[3.5]nonan-7-yl)nicotinamide]",217
23,"O=C(Nc1cccc(S(=O)(=O)C2CCCC2)c1)c1ccc(N2CC(CO)C2)nc1N1CCC2(CC1)CC2 [Example 103-20, N-(3-(cyclopentylsulfonyl)phenyl)-6-(3-(hydroxymethyl)azetidin-1-yl)-2-(6-azaspiro[2.5]octan-6-yl)nicotinamide]",141
24,"CC(C)(C)NS(=O)(=O)c1cccc(NC(=O)c2ccc(NC3(CO)CC3)nc2N2CCC3(CC2)CC3)c1 [Example 105-11, N-(3-(N-(tert-butyl)sulfamoyl)phenyl)-6-((1-(hydroxymethyl)cyclopropyl)amino)-2-(6-azaspiro[2.5]octan-6-yl)nicotinamide]",94
25,"CC(O)(c1ccc(C(=O)Nc2cccc(S(=O)(=O)NC3CC3)c2)c(N2CCC3(CC2)CC3)n1)C(F)(F)F (stereo not drawn) [Example 108-1, N-(3-(N-cyclopropylsulfamoyl)phenyl)-2-(6-azaspiro[2.5]octan-6-yl)-6-(1,1,1-trifluoro-2-hydroxypropan-2-yl)nicotinamide]",52
26,"Cc1ccc(NC(=O)c2ccc(NC(C)(C)CO)nc2N2CCC3(CCC3)CC2)cc1S(=O)(=O)C1CCCC1 [Example 105-9, N-(3-(cyclopentylsulfonyl)-4-methylphenyl)-6-((1-hydroxy-2-methylpropan-2-yl)amino)-2-(7-azaspiro[3.5]nonan-7-yl)nicotinamide]",68
27,"O=C(Nc1cccc(S(=O)(=O)C2CCCC2)c1)c1ccc(NC2(CO)CC2)nc1N1CCC2(CCC2)CC1 [Example 103-25, N-(3-(cyclopentylsulfonyl)phenyl)-6-((1-(hydroxymethyl)cyclopropyl)amino)-2-(7-azaspiro[3.5]nonan-7-yl)nicotinamide]",38
28,"CCCC1CCN(c2ncccc2C(=O)Nc2cccc(S(=O)(=O)C3CCCC3)c2)CC1 [Example 100-17, N-(3-(cyclopentylsulfonyl)phenyl)-2-(4-propylpiperidin-1-yl)nicotinamide]",778
29,"Cc1cnc(-c2cccc(NC(=O)c3ccc(NC(C)(C)CO)nc3N3CCC4(CC3)CC4)c2)o1 [Example 111-6, 6-((1-hydroxy-2-methylpropan-2-yl)amino)-N-(3-(5-methyloxazol-2-yl)phenyl)-2-(6-azaspiro[2.5]octan-6-yl)nicotinamide]",135
30,"CC(C)(C)NS(=O)(=O)c1cccc(NC(=O)c2ccc(N[C@H]3CC[C@H](O)C3)nc2N2CCC3(CC2)CC3)c1 [Example 102-23, N-(3-(N-(tert-butyl)sulfamoyl)phenyl)-6-(((1S,3S)-3-hydroxycyclopentyl)amino)-2-(6-azaspiro[2.5]octan-6-yl)nicotinamide]",185
